Experimental findings from ChEMBL document CHEMBL3046570, “Synthesis, structure characterization, and biological evaluation of some new 1,2,3-benzotriazole derivatives” (2010) are described below.

Active and inactive are the calls of the source. The calls are words filed in the database; no cut-off is given here.

Assay [1] has as its system Mycosphaerella arachidis. As to the kind of experiment: Fungicidal activity against Mycosphaerella arachidis assessed as inhibition of mycelium formation at 50 ug/ml after 72 hr (reference value: 0.005%). The assay is classed as functional.
Assay [2] relates to 4T1. As to the kind of experiment: Cytotoxicity against Mus musculus (mouse) 4T1 cells assessed as decrease in cell viability after 24 to 72 hr by MTT assay. The assay is classed as functional, cell-based. (Tetrazolium dyes change colour on reduction, which living cells bring about.)
The subject of assay [3] is 4T1. As to the kind of experiment: Cytotoxicity against Mus musculus (mouse) 4T1 cells assessed as cell survival at 0.2 mM after 48 hr by MTT assay relative to control. The conditions noted are these: 4T1, 48 h, read-out: Survival. The assay is classed as functional.
For assay [4], the system named is 4T1. As to the kind of experiment: Cytotoxicity against Mus musculus (mouse) 4T1 cells assessed as cell survival at 0.2 mM after 24 hr by MTT assay relative to control. The assay is classed as functional. The following applies: 4T1, 24 h, read-out: Survival.
Assay [5] relates to 4T1. In words: Cytotoxicity against Mus musculus (mouse) 4T1 cells assessed as decrease in cell viability at 0.2 mM by MTT assay. The conditions noted are these: TDE = time-dependent effect. The assay is classed as functional, cell-based.
The test system of assay [6] is 4T1. As to the kind of experiment: Cytotoxicity against Mus musculus (mouse) 4T1 cells assessed as cell survival at 0.2 mM after 72 hr by MTT assay relative to control. The conditions noted are these: 4T1, 72 h, read-out: Survival. The assay is classed as functional.
Assay [7] is filed under the species Homo sapiens. In words: Cytotoxicity against Homo sapiens (human) HEP7402 cells assessed as decrease in cell viability at 0.05 to 0.2 mM after 24 to 72 hr by MTT assay. The assay is classed as functional, cell-based.

What is called inhibition is the share of the control response that was lost under treatment. On to `O=C(OC(Cn1nnc2ccccc21)C(=O)c1ccccc1)c1ccncc1` (stereo unspecified), for which the inhibition at 50 µg/mL in assay [1] came to 13%.
Regarding `O=C(OC(Cn1nnc2ccccc21)C(=O)c1ccc(Cl)cc1)c1cccnc1` (stereo unspecified), the Activity entry in assay [2] is “Dose-dependent effect”; in assay [5], “tde”. For the same compound, the viability at 200 µM turned out to be 45% in assay [3], 52.2% in assay [4] and 40.3% in assay [6]. Also, in assay [1], the inhibition at 50 µg/mL is 18.8%.
As for `O=C(OC(Cn1nnc2ccccc21)C(=O)c1ccccc1)c1cccnc1` (stereo unspecified), in assay [1], the inhibition at 50 µg/mL is 15%.
On to `Cc1ccc(C(=O)C(Cn2nnc3ccccc32)OC(=O)c2cccnc2)cc1` (stereo unspecified), for which the inhibition at 50 µg/mL in assay [1] was 0%. Moreover, in assay [7], the outcome was Active.
As to `O=C(OC(Cn1nnc2ccccc21)C(=O)c1ccc(Cl)cc1Cl)c1cccnc1` (stereo unspecified), the inhibition at 50 µg/mL in assay [1] was 31.3%.
